For one series, the system named is NCI-N87 cell. Briefly: inhibitory activity on cell proliferation (Cell-Titer-Glo), NCI-N87. Conditions: Homo sapiens, NCI-N87, 72 h; incubation for 3 days, Cell-Titer-Glo. It counts as cell-based. The source says:
Purpose of the assay: to detect the inhibitory activity of the test compounds on cell proliferation.
Principle of the assay: the luciferase in a Cell-Titer-Glo reagent produces oxidized luciferin with luciferin, oxygen and ATP as reaction substrates, and releases energy in the form of light. Since the luciferase reaction requires ATP, the total amount of light generated by the reaction is proportional to the total amount of ATP that reflects cell viability.
Cell Titer-Glo cell viability assay kit with luminescence (Promega #G7573)
According to the schematic diagram of the cell seed plate, cells were seeded in a 384- or 96-well plate at a density of 1000 cells per well and 25 μL per well, and 25 μL of PBS was added to the wells near edge of the place where no cells were seeded.
(1) The stock solution of the compounds has a concentration of 10 mM, and the compounds were diluted with DMSO to an initial concentration of 4 mM. The compounds were added to the plate with stock solution of compounds, 9 μL per well.
(2) The compounds were diluted with an ECHO liquid workstation, where 125 nL of compounds were added to each well of the cell plate, 125 nL of DMSO was added to each of the cell well in columns 2 and 23, and 125 nL of DMSO was added to each PBS well in columns 1 and 24.
2.3 After addition of the compounds, the cell plate was centrifuged at 1000 rpm for 1 min, and then placed in a 37° C., 5% CO2 incubator for incubation for 3 days.
The cell plate was taken out from the incubator and equilibrated at room temperature for 30 minutes. 25 μL of Cell-Titer-Glo reagent was added to each well, shaken for one minute to allow well mixed, and centrifuged at 1000 rpm for 1 minute. After 10 minutes, the plate was read on PerkinElmer Envision, and the […] reading time was set to 0.2 second.

A further series deals with HER2 (ErbB2) (Homo sapiens, UniProt P04626). Briefly: in vitro enzyme activity, HER2 (ErbB2). The format is biochemical. Conditions: human ErbB2, [γ-33P]ATP, poly(Glu, Tyr) substrate. The method, then:
The purpose of this assay is to detect the in vitro inhibitory activity of compounds on HER1 (ErbB1), HER2 (ErbB2), and HER4 (ErbB4). The enzymes used in this assay are human ErbB1, ErbB2 and ErbB4. Eurofins Pharma Discovery Service provided the method for activity detection.
Steps and Method of the Assay (96-Well Plate):
A buffer solution of the test compounds in a dilution of 5-fold (5 μL), polypeptide substrate poly(Glu, Tyr) (4:1) (2.5 μL), ErbB (4-20 ng, 2.5 μL), MnCl2 (50 mM, 1.25 μL), dH2O (3.75 μL), and [γ-^33P]ATP (10 μL) were added, and incubated at 30° C. for 10 minutes. The reaction was terminated by adding 3% phosphoric acid. 10 μL of the sample was taken and transferred to Filtermate A. The filter disc was washed 3 times with 75 mM phosphoric acid and once with methanol. The filter disc was transferred to a sealed plastic bag and the scintillation mixture (4 mL) was added. The intensity of the emitted photon was detected by a scintillation luminescence counter. The CPM (times/min) of the enzyme sample was compared with the CPM of the internal control sample. The level of photon intensity reflected the degree of the tyrosine kinase activity.

The target in a further series is T1, CYP2C9 (Homo sapiens, UniProt P11712).
T1 construct: in the assay of CYP enzyme activity in human liver microsome; from tissue; host or cells: human liver microsome
Briefly: inhibition of CYP enzyme activity in human liver microsome, CYP2C9. The format is in vitro ADME. An excerpt:
(§1) The results of the compounds disclosed herein and the reference compound Poziotinib in the assay of CYP enzyme activity in human liver microsome were shown in the following table (Table 8).

A further series deals with T2, CYP2C19 (Homo sapiens, UniProt P33261).
T2 construct: in the assay of CYP enzyme activity in human liver microsome; from tissue; host or cells: human liver microsome
Briefly: inhibition of CYP enzyme activity in human liver microsome, CYP2C19. It counts as in vitro ADME.
Text: as §1

Series [1] can be described thus: Assay Example 7: pharmacokinetics in mice. The format is in vivo. Conditions: mouse, female BALB/c mice, plasma, dose not given; for Tmax / half-life: oral; for AUC(0-t) / Cmax: oral plasma exposure. On the procedure: Purpose of the assay: this assay aims to investigate in vivo plasma pharmacokinetics of the example compounds disclosed herein and the reference compound in female BALB/c mice after the single intravenous injection and intragastric administration thereof.
Animals of the assay: female BALB/c nude mice, 7-9 weeks old, weighted 17-23 grams; supplier: shanghai sippr bk laboratory animals Ltd.
Sample collection: at each time point, a 0.03 mL blood sample was collected from the saphenous vein of the test animal by puncture, and the actual blood collection time was recorded. All blood samples were added into commercial EDTA-K2 anticoagulation tubes with a specification of 1.5 mL (the supplier was Jiangsu KANGJIAN Medical Apparatus Co., Ltd.). Within half an hour after the blood sample was collected, the blood sample was centrifuged at 3000 g at 4° C. for 10 minutes, and the supernatant plasma was drawn, quickly placed in dry ice, and stored in a refrigerator at −80° C. for LC-MS/MS analysis.
Data analysis: Plasma concentrations were processed using a non-compartmental model of WinNonlin™ Version6.3 (Pharsight, MountainView, Calif.) pharmacokinetic software, and pharmacokinetic parameters Cmax, Tmax, T1/2, and AUC0-last were calculated using a linear log trapezoid method.

The target of the next series is T3, CYP2D6 (Homo sapiens, UniProt P10635).
T3 construct: in the assay of CYP enzyme activity in human liver microsome; from tissue; host or cells: human liver microsome
Briefly: inhibition of CYP enzyme activity in human liver microsome, CYP2D6. The format is in vitro ADME.
Text: as §1

T2 sequence (P33261 whole entry): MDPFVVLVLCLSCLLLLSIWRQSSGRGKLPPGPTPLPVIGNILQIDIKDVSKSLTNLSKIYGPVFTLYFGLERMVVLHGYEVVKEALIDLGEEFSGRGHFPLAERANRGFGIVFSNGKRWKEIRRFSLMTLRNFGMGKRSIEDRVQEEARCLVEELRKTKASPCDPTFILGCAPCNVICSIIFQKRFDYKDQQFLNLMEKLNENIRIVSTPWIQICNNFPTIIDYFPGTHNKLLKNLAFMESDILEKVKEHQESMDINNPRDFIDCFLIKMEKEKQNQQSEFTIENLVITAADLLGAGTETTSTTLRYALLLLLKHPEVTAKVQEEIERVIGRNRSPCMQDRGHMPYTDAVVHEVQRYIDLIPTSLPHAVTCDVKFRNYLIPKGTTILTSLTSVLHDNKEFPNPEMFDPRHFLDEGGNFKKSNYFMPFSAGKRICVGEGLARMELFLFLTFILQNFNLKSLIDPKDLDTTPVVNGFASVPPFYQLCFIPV
T3 sequence (P10635 whole entry): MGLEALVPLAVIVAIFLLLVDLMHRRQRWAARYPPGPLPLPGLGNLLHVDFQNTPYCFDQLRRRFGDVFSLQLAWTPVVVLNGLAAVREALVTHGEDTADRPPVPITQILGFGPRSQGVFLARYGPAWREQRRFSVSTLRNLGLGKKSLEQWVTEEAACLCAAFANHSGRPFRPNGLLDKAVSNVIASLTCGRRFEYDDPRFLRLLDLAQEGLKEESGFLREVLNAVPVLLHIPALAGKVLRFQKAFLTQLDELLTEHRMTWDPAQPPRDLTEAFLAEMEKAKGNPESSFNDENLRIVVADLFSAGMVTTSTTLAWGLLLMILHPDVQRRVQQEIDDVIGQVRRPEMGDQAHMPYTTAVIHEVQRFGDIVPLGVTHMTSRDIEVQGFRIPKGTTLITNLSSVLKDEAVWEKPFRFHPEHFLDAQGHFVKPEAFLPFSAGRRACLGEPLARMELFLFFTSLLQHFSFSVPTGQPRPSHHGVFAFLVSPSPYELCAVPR
T1 sequence (P11712 whole entry): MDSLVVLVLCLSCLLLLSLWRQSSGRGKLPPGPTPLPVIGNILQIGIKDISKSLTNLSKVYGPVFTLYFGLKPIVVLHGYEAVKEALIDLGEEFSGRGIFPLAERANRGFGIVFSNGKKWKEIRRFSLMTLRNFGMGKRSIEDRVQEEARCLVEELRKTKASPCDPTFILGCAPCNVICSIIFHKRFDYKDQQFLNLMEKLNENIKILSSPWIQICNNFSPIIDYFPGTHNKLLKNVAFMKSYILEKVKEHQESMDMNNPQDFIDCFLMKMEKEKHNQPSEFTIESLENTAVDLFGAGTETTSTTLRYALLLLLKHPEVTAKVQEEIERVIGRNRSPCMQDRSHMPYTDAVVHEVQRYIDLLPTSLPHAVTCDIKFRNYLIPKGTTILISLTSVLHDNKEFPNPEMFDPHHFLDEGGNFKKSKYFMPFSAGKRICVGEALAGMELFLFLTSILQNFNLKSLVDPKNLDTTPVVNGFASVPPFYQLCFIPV
Sequence of HER2 (ErbB2) (P04626 23-1255): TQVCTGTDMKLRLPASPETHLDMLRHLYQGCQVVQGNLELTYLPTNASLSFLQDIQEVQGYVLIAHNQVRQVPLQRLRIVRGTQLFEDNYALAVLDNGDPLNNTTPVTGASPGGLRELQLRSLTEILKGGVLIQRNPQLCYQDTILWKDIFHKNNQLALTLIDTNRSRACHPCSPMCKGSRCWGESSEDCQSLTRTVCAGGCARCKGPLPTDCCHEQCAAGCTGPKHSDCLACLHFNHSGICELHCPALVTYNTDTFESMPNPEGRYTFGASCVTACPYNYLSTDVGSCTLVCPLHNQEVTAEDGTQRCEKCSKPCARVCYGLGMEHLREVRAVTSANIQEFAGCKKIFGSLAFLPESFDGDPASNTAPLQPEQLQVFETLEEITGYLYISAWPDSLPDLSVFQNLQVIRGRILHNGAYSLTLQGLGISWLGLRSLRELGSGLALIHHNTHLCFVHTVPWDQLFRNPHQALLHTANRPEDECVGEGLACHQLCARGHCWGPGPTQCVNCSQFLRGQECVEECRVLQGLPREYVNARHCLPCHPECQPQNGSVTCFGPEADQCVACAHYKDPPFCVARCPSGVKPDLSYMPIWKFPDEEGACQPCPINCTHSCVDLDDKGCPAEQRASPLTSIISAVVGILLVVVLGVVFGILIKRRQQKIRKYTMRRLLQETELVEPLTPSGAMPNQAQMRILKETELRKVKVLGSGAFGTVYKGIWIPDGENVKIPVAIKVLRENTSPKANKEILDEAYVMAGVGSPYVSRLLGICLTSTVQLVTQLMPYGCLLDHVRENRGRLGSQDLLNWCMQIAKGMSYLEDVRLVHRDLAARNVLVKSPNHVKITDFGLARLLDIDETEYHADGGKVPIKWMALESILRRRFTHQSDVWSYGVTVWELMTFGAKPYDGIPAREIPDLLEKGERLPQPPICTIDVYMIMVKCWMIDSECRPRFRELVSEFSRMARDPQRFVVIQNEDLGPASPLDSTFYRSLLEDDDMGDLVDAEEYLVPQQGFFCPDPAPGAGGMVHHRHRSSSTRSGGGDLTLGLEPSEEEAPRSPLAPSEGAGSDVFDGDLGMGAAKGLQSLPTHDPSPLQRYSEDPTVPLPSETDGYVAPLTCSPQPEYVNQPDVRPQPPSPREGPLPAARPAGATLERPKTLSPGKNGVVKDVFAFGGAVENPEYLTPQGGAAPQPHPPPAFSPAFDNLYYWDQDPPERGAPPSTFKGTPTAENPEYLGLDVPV

Regarding `C=CC(=O)N1[C@@H]2CC[C@H]1C[C@H](Oc1cc3c(Nc4ccc(Cl)c(Cl)c4F)ncnc3cc1OC)C2` [Example 8], the IC50 was found to be 0.00028 µM in the series on NCI-N87 cell and 0.0055 µM against HER2 (ErbB2).

For the compound `C=CC(=O)N1[C@@H]2CC[C@H]1C[C@H](Nc1cc3c(Nc4ccc(Cl)c(Cl)c4F)ncnc3cc1OC)C2` [Example 38], half-maximal inhibition at CYP2C9 (IC50) was put at 16 µM. At CYP2C9 (versus Poziotinib), the “activity on CYP2C9, times better than that of the reference compound” value is reported as 2 times. On CYP2C19, it took 11 µM to reach half-maximal inhibition (IC50) and the “inhibition of CYP enzyme CYP2C19” value was “comparable to that of the reference compound Poziotinib”. The compound further came in with an IC50 in the series on NCI-N87 cell of 0.00046 µM. In addition, in series [1], the Tmax worked out at 2 h, the half-life is 3.2 h, the AUC(0-t) turned out to be 122 µM·h and the Cmax worked out at 10.6 µM. This compound also registered an IC50 against CYP2D6 of 6 µM. Also, the “activity on CYP2D6, times better than that of the reference compound” value at CYP2D6 (versus Poziotinib) stood at 6 times. In addition, inhibition at HER2 (ErbB2) was half-maximal at 0.005 µM (IC50).

`C=CC(=O)N1CCC(Oc2cc3c(Nc4ccc(Cl)c(Cl)c4F)ncnc3cc2OC)CC1` [Poziotinib, reference compound] displayed an IC50 against CYP2C9 of 8 µM. The IC50 against CYP2C19 amounted to 12 µM. Also, in series [1], the Tmax was 0.25 h, the half-life is 2.3 h, the AUC(0-t) was determined as 97.9 µM·h and the highest level (Cmax) was 17.3 µM. The compound also returned an IC50 against CYP2D6 of 1 µM.
